# Key:
# Assay type in all cases: cell-based; call rule not given here
# D(3) dopamine receptor = D(3) dopamine receptor (Homo sapiens, UniProt P35462); test: Agonist activity at human D3R expressed in CHOK1 cells assessed as induction of beta-arrestin recruitment measured after 90 mins by beta-galactosidase based PathHunter assay
# D(2) dopamine receptor [1] = biological target: T1, D(2) dopamine receptor (Homo sapiens, UniProt P14416); test: Agonist activity at human D2R expressed in CHOK1 cells assessed as induction of beta-arrestin recruitment measured after 90 mins by beta-galactosidase based PathHunter assay
# D(2) dopamine receptor [2] = biological target: T1, D(2) dopamine receptor; test: Antagonist activity at human D2R expressed in CHOK1 cells assessed as inhibition of dopamine-induced beta-arrestin recruitment measured after 120 mins by beta-galactosidase based PathHunter assay
Structure (SMILES),EC50 (D(3) dopamine receptor; read-out: EC50),EC50 (D(2) dopamine receptor [1]),IC50 (D(2) dopamine receptor [2]),EC50 (D(2) dopamine receptor [1]; read-out: EC50),IC50 (D(2) dopamine receptor [2]; read-out: IC50),EC50 (D(3) dopamine receptor)
COc1ccc(OCCN2CCN(C(=O)c3ccncc3)CC2)cc1,22 µM,Not Active,Not Active,,,
COc1ccc(OCCN2CCN(C(=O)c3ccc(OC)cn3)CC2)cc1,2.1 µM,,,> 50 µM,> 100 µM,
COc1ccc(OCCN2CCN(CC(=O)c3cc4ccccc4[nH]3)CC2)cc1,,Not Active,Not Active,,,Not Active
COc1ccc(C(=O)N2CCN(CCOc3cccnc3)CC2)cc1,0.017 µM,,,2.9 µM,> 100 µM,
COc1ccc(OCCN2CCN(C(C)=O)CC2)cc1,9.7 µM,Not Active,Not Active,,,
COc1ccc(OCCN2CCN(C(=O)c3cc4cccc(OC)c4[nH]3)CC2)cc1,0.98 µM,,,6 µM,> 10 µM,
COc1ccc(C(=O)N2CCN(CCOc3cc(OC)cc(OC)c3)CC2)cc1,,Not Active,,,> 50 µM,Not Active
CCc1ccc(OCCN2CCN(C(=O)c3ccc(OC)cc3)CC2)cc1,2.6 µM,Not Active,,,> 50 µM,
COc1ccc(OCCN2CCN(C(=O)c3cc4cnccc4[nH]3)CC2)cc1,0.576 µM,,,5.5 µM,> 100 µM,
COc1cccc(OCCN2CCN(C(=O)c3cc4cccnc4[nH]3)CC2)c1,0.05 µM,,Not Active,0.128 µM,,
COc1ccc(OCCN2CCN(S(=O)(=O)c3ccc(OC)cc3)CC2)cc1,,,Not Active,> 100 µM,,Not Active
COc1ccc(OCCN2CCN(C(=O)c3cc4cc(OC)ccc4[nH]3)CC2)cc1,0.52 µM,,,7.8 µM,> 100 µM,
COc1ccc(OCCN2CCN(C(=O)c3cc4ccncc4[nH]3)CC2)cc1,0.81 µM,,,7.8 µM,> 100 µM,
COc1ccc(C(=O)N2CCN(CCOc3ccc(OC(F)(F)F)cc3)CC2)cc1,,Not Active,,,> 50 µM,Not Active
Cc1ccc2[nH]c(C(=O)N3CCN(CCOc4cccnc4)CC3)cc2c1,0.013 µM,,Not Active,1.3 µM,,
O=C(c1ccc[nH]1)N1CCN(CCOc2cccnc2)CC1,0.118 µM,,,6.1 µM,> 100 µM,
COc1ccc(OCCN2CCN(C(=O)c3cc4cccc(C)c4[nH]3)CC2)cc1,0.473 µM,,,10.1 µM,> 100 µM,
O=C(c1cc2ncccc2[nH]1)N1CCN(CCOc2cccnc2)CC1,0.2 µM,,Not Active,3 µM,,
COc1ccc(OCCC2CCN(C(=O)c3ccc(OC)cc3)CC2)cc1,,Not Active,Not Active,,,Not Active

# Next, values leading:
EC50 (D(3) dopamine receptor; read-out: EC50),EC50 (D(2) dopamine receptor [1]),IC50 (D(2) dopamine receptor [2]),EC50 (D(2) dopamine receptor [1]; read-out: EC50),IC50 (D(2) dopamine receptor [2]; read-out: IC50),EC50 (D(3) dopamine receptor),Structure (SMILES)
0.472 µM,Not Active,,,> 100 µM,,O=C(c1cc2ccccc2[nH]1)N1CCN(CCOc2ccncc2)CC1
3.5 µM,Not Active,,,> 100 µM,,O=C(c1cc2ccccc2[nH]1)N1CCN(CCOc2ccccn2)CC1
0.63 µM,Not Active,,,> 100 µM,,CSc1ccc(OCCN2CCN(C(=O)c3cc4ccccc4[nH]3)CC2)cc1
0.997 µM,Not Active,Not Active,,,,Cc1ccc(OCCN2CCN(C(=O)c3cc4ccccc4[nH]3)CC2)cc1Cl
0.151 µM,,,> 50 µM,> 100 µM,,Cc1ccc(OCCN2CCN(C(=O)c3cc4ccccc4[nH]3)CC2)cc1
0.16 µM,,,7.1 µM,> 100 µM,,COc1ccc(OCCN2CCN(C(=O)c3cc4c(Cl)cccc4[nH]3)CC2)cc1
,Not Active,,,> 100 µM,Not Active,CC(C)(C)c1ccc(OCCN2CCN(C(=O)c3cc4ccccc4[nH]3)CC2)cc1
,Not Active,,,> 100 µM,Not Active,COc1ccc(SCCN2CCN(C(=O)c3cc4ccccc4[nH]3)CC2)cc1

# Reference: ChEMBL document CHEMBL4402608 (J Med Chem, 2020)
